Format in all cases: functional, organism-based
Assay [1] relates to Plasmodium falciparum. Description: Antimalarial activity against chloroquine-,pyrimethamine-resistant Plasmodium falciparum W2 assessed as inhibition of [3H]hypoxanthine incorporation after 96 hrs by microtiter plate scintillation counting.
Assay [2] deals with Plasmodium falciparum. Description: Antimalarial activity against multidrug-resistant Plasmodium falciparum TM91C235 assessed as inhibition of [3H]hypoxanthine incorporation after 96 hrs by microtiter plate scintillation counting.
The test system of assay [3] is Plasmodium falciparum. Description: Antimalarial activity against chloroquine-sensitive Plasmodium falciparum D6 assessed as inhibition of [3H]hypoxanthine incorporation after 96 hrs by microtiter plate scintillation counting.

Results on 24 compounds are retold here after ChEMBL document CHEMBL1681728, “An automated, polymer-assisted strategy for the preparation of urea and thiourea derivatives of 15-membered azalides as potential antimalarial chemotherapeutics” (Bioorg Med Chem, 2011).

Each structure is given as a SMILES string. pIC50: −log10 of the molar value.

Broadly, the pIC50 is the negative decadic logarithm of the IC50, by convention in mol/L. `CC[C@H]1OC(=O)[C@H](C)[C@@H](O[C@H]2C[C@@](C)(OC)[C@@H](O)[C@H](C)O2)[C@H](C)[C@@H](O[C@@H]2O[C@H](C)C[C@H](N(C)C)[C@H]2O)[C@](C)(O)C[C@@H](C)CN(CCCNC(=O)Nc2cccc(F)c2)[C@H](C)[C@@H](O)[C@]1(C)O`: the pIC50 with Plasmodium falciparum [1] is 6.55; with Plasmodium falciparum [2], 6.79; in the assay on Plasmodium falciparum [3] it was 6.24.
On the same counts, the results for `CC[C@H]1OC(=O)[C@H](C)[C@@H](O[C@H]2C[C@@](C)(OC)[C@@H](O)[C@H](C)O2)[C@H](C)[C@@H](O[C@@H]2O[C@H](C)C[C@H](N(C)C)[C@H]2O)[C@](C)(O)C[C@@H](C)CN(CCCNC(=S)Nc2ccc(C)cc2)[C@H](C)[C@@H](O)[C@]1(C)O` are 7.15, 6.78 and 6.48.
In the same order, the values of `CC[C@H]1OC(=O)[C@H](C)[C@@H](O[C@H]2C[C@@](C)(OC)[C@@H](O)[C@H](C)O2)[C@H](C)[C@@H](O[C@@H]2O[C@H](C)C[C@H](N(C)C)[C@H]2O)[C@](C)(O)C[C@@H](C)CN(CCCNC(=S)Nc2ccc3c(c2)OCO3)[C@H](C)[C@@H](O)[C@]1(C)O` are 6.74, 6.76 and 6.48.
In the same order, the values of `CC[C@H]1OC(=O)[C@H](C)[C@@H](O[C@H]2C[C@@](C)(OC)[C@@H](O)[C@H](C)O2)[C@H](C)[C@@H](O[C@@H]2O[C@H](C)C[C@H](N(C)C)[C@H]2O)[C@](C)(O)C[C@@H](C)CN(CCCNC(=S)Nc2ccc(Br)cc2)[C@H](C)[C@@H](O)[C@]1(C)O` are 6.77, 6.76 and 6.58.
Regarding `CC[C@H]1OC(=O)[C@H](C)[C@@H](O[C@H]2C[C@@](C)(OC)[C@@H](O)[C@H](C)O2)[C@H](C)[C@@H](O[C@@H]2O[C@H](C)C[C@H](N(C)C)[C@H]2O)[C@](C)(O)C[C@@H](C)CN(CCCNC(=S)Nc2ccc(N(C)C)c3ccccc23)[C@H](C)[C@@H](O)[C@]1(C)O`, the figures for the pIC50 in the assay with Plasmodium falciparum [1], with Plasmodium falciparum [2] and in the assay on Plasmodium falciparum [3] were 6.76, 6.74 and 6.49, respectively.
Consider `CC[C@H]1OC(=O)[C@H](C)[C@@H](O[C@H]2C[C@@](C)(OC)[C@@H](O)[C@H](C)O2)[C@H](C)[C@@H](O[C@@H]2O[C@H](C)C[C@H](N(C)C)[C@H]2O)[C@](C)(O)C[C@@H](C)CN(CCCNC(=S)NC2CC3C=CC2C3)[C@H](C)[C@@H](O)[C@]1(C)O` (some centres not stated), for which the values for the pIC50 in the assay on Plasmodium falciparum [1], with Plasmodium falciparum [2] and with Plasmodium falciparum [3] were 6.76, 6.74 and 6.52, respectively.
In the same order, the values of `CC[C@H]1OC(=O)[C@H](C)[C@@H](O[C@H]2C[C@@](C)(OC)[C@@H](O)[C@H](C)O2)[C@H](C)[C@@H](O[C@@H]2O[C@H](C)C[C@H](N(C)C)[C@H]2O)[C@](C)(O)C[C@@H](C)CN(CCCNC(=O)NC(C)(C)CC(C)(C)C)[C@H](C)[C@@H](O)[C@]1(C)O` are 7.11, 6.74 and 6.57.
On the same counts, the results for `CC[C@H]1OC(=O)[C@H](C)[C@@H](O[C@H]2C[C@@](C)(OC)[C@@H](O)[C@H](C)O2)[C@H](C)[C@@H](O[C@@H]2O[C@H](C)C[C@H](N(C)C)[C@H]2O)[C@](C)(O)C[C@@H](C)CN(CCCNC(=S)Nc2c(F)cccc2F)[C@H](C)[C@@H](O)[C@]1(C)O` are 7.06, 6.72 and 6.29.
On the same counts, the results for `CC[C@H]1OC(=O)[C@H](C)[C@@H](O[C@H]2C[C@@](C)(OC)[C@@H](O)[C@H](C)O2)[C@H](C)[C@@H](O[C@@H]2O[C@H](C)C[C@H](N(C)C)[C@H]2O)[C@](C)(O)C[C@@H](C)CN(CCCNC(=O)Nc2ccc(C#N)cc2)[C@H](C)[C@@H](O)[C@]1(C)O` are 7.01, 6.69 and 6.41.
For the compound `CC[C@H]1OC(=O)[C@H](C)[C@@H](O[C@H]2C[C@@](C)(OC)[C@@H](O)[C@H](C)O2)[C@H](C)[C@@H](O[C@@H]2O[C@H](C)C[C@H](N(C)C)[C@H]2O)[C@](C)(O)C[C@@H](C)CN(CCCNC(=S)Nc2ccc(OC)cc2)[C@H](C)[C@@H](O)[C@]1(C)O`, the pIC50 in the assay with Plasmodium falciparum [1] is 7.11; in the assay on Plasmodium falciparum [2], 6.68; in the assay with Plasmodium falciparum [3], 6.32.
Take `CC[C@H]1OC(=O)[C@H](C)[C@@H](O[C@H]2C[C@@](C)(OC)[C@@H](O)[C@H](C)O2)[C@H](C)[C@@H](O[C@@H]2O[C@H](C)C[C@H](N(C)C)[C@H]2O)[C@](C)(O)C[C@@H](C)CN(CCCNC(=S)NCc2ccc3c(c2)OCO3)[C@H](C)[C@@H](O)[C@]1(C)O`: the pIC50 in the assay on Plasmodium falciparum [1] was 6.86; in the assay with Plasmodium falciparum [2], 6.66; in the assay on Plasmodium falciparum [3], 6.50.
In the same order, the values of `CC[C@H]1OC(=O)[C@H](C)[C@@H](O[C@H]2C[C@@](C)(OC)[C@@H](O)[C@H](C)O2)[C@H](C)[C@@H](O[C@@H]2O[C@H](C)C[C@H](N(C)C)[C@H]2O)[C@](C)(O)C[C@@H](C)CN(CCCNC(=O)Nc2cc(F)cc3c2OCOC3)[C@H](C)[C@@H](O)[C@]1(C)O` are 6.51, 6.66 and 6.55.
In the same order, the values of `CC[C@H]1OC(=O)[C@H](C)[C@@H](O[C@H]2C[C@@](C)(OC)[C@@H](O)[C@H](C)O2)[C@H](C)[C@@H](O[C@@H]2O[C@H](C)C[C@H](N(C)C)[C@H]2O)[C@](C)(O)C[C@@H](C)CN(CCCNC(=O)Nc2ccc(C)cc2C)[C@H](C)[C@@H](O)[C@]1(C)O` are 6.75, 6.63 and 6.33.
In the same order, the values of `CC[C@H]1OC(=O)[C@H](C)[C@@H](O[C@H]2C[C@@](C)(OC)[C@@H](O)[C@H](C)O2)[C@H](C)[C@@H](O[C@@H]2O[C@H](C)C[C@H](N(C)C)[C@H]2O)[C@](C)(O)C[C@@H](C)CN(CCCNC(=O)NC2CCN(C(=O)OCc3ccccc3)CC2)[C@H](C)[C@@H](O)[C@]1(C)O` are 6.56, 6.63 and 6.20.
`CC[C@H]1OC(=O)[C@H](C)[C@@H](O[C@H]2C[C@@](C)(OC)[C@@H](O)[C@H](C)O2)[C@H](C)[C@@H](O[C@@H]2O[C@H](C)C[C@H](N(C)C)[C@H]2O)[C@](C)(O)C[C@@H](C)CN(CCCNC(=S)NCc2ccco2)[C@H](C)[C@@H](O)[C@]1(C)O`: the pIC50 in the assay on Plasmodium falciparum [1] was 6.35; in the assay with Plasmodium falciparum [2], 6.62; with Plasmodium falciparum [3], 6.48.
In the same order, the values of `CCc1ccccc1NC(=S)NCCCN1C[C@H](C)C[C@@](C)(O)[C@H](O[C@@H]2O[C@H](C)C[C@H](N(C)C)[C@H]2O)[C@@H](C)[C@H](O[C@H]2C[C@@](C)(OC)[C@@H](O)[C@H](C)O2)[C@@H](C)C(=O)O[C@H](CC)[C@@](C)(O)[C@H](O)[C@H]1C` are 7.02, 6.60 and 6.35.
In the same order, the values of `CC[C@H]1OC(=O)[C@H](C)[C@@H](O[C@H]2C[C@@](C)(OC)[C@@H](O)[C@H](C)O2)[C@H](C)[C@@H](O[C@@H]2O[C@H](C)C[C@H](N(C)C)[C@H]2O)[C@](C)(O)C[C@@H](C)CN(CCCNC(=O)Nc2ccc3c(c2)OCO3)[C@H](C)[C@@H](O)[C@]1(C)O` are 6.96, 6.58 and 6.08.
On the same counts, the results for `CC[C@H]1OC(=O)[C@H](C)[C@@H](O[C@H]2C[C@@](C)(OC)[C@@H](O)[C@H](C)O2)[C@H](C)[C@@H](O[C@@H]2O[C@H](C)C[C@H](N(C)C)[C@H]2O)[C@](C)(O)C[C@@H](C)CN(CCCNC(=S)NC(=O)c2ccccc2)[C@H](C)[C@@H](O)[C@]1(C)O` are 6.97, 6.54 and 6.53.
Consider `CC[C@H]1OC(=O)[C@H](C)[C@@H](O[C@H]2C[C@@](C)(OC)[C@@H](O)[C@H](C)O2)[C@H](C)[C@@H](O[C@@H]2O[C@H](C)C[C@H](N(C)C)[C@H]2O)[C@](C)(O)C[C@@H](C)CN(CCCNC(=S)Nc2ccc(N(CC)CC)cc2)[C@H](C)[C@@H](O)[C@]1(C)O`, for which the pIC50 is 6.17 in the assay with Plasmodium falciparum [1], 6.53 with Plasmodium falciparum [2] and 6.12 in the assay with Plasmodium falciparum [3].
On the same counts, the results for `CC[C@H]1OC(=O)[C@H](C)[C@@H](O[C@H]2C[C@@](C)(OC)[C@@H](O)[C@H](C)O2)[C@H](C)[C@@H](O[C@@H]2O[C@H](C)C[C@H](N(C)C)[C@H]2O)[C@](C)(O)C[C@@H](C)CN(CCCNC(=O)Nc2cc(C)oc2C(F)(F)F)[C@H](C)[C@@H](O)[C@]1(C)O` are 6.51, 6.49 and 6.44.
Consider `CC[C@H]1OC(=O)[C@H](C)[C@@H](O[C@H]2C[C@@](C)(OC)[C@@H](O)[C@H](C)O2)[C@H](C)[C@@H](O[C@@H]2O[C@H](C)C[C@H](N(C)C)[C@H]2O)[C@](C)(O)C[C@@H](C)CN(CCCNC(=S)Nc2ccsc2C(=O)OC)[C@H](C)[C@@H](O)[C@]1(C)O`, for which the results for the pIC50 with Plasmodium falciparum [1], in the assay on Plasmodium falciparum [2] and in the assay with Plasmodium falciparum [3] were 6.43, 6.48 and 6.34, respectively.
For `CC[C@H]1OC(=O)[C@H](C)[C@@H](O[C@H]2C[C@@](C)(OC)[C@@H](O)[C@H](C)O2)[C@H](C)[C@@H](O[C@@H]2O[C@H](C)C[C@H](N(C)C)[C@H]2O)[C@](C)(O)C[C@@H](C)CN(CCCNC(=S)NCCCSC)[C@H](C)[C@@H](O)[C@]1(C)O`, the pIC50 with Plasmodium falciparum [1] was 6.69; with Plasmodium falciparum [2] it was 6.45; with Plasmodium falciparum [3], 6.05.
For `CCCCNC(=S)NCCCN1C[C@H](C)C[C@@](C)(O)[C@H](O[C@@H]2O[C@H](C)C[C@H](N(C)C)[C@H]2O)[C@@H](C)[C@H](O[C@H]2C[C@@](C)(OC)[C@@H](O)[C@H](C)O2)[C@@H](C)C(=O)O[C@H](CC)[C@@](C)(O)[C@H](O)[C@H]1C`, the pIC50 in the assay on Plasmodium falciparum [1] was 6.73; in the assay on Plasmodium falciparum [2], 6.42; with Plasmodium falciparum [3], 6.18.
Turning to `CC[C@H]1OC(=O)[C@H](C)[C@@H](O[C@H]2C[C@@](C)(OC)[C@@H](O)[C@H](C)O2)[C@H](C)[C@@H](O[C@@H]2O[C@H](C)C[C@H](N(C)C)[C@H]2O)[C@](C)(O)C[C@@H](C)CN(CCCNC(=O)Nc2ccc(C(C)=O)cc2)[C@H](C)[C@@H](O)[C@]1(C)O`, the values for the pIC50 with Plasmodium falciparum [1], in the assay on Plasmodium falciparum [2] and in the assay on Plasmodium falciparum [3] were 6.15, 6.40 and 5.76, respectively.
